From patent publication US10933063B2 (priority 2017, dated 2021)
Read-outs that look alike come from different tables or passages of the source.

How the values were obtained:
BTK [1] = molecular target: T1, BTK (Homo sapiens (Human), UniProt Q06187); details: read-out: BTK Inhibition
BTK [2] = molecular target: T1, BTK; assay: biochemical

T1 sequence (Q06187 whole entry, looked up, species assumed): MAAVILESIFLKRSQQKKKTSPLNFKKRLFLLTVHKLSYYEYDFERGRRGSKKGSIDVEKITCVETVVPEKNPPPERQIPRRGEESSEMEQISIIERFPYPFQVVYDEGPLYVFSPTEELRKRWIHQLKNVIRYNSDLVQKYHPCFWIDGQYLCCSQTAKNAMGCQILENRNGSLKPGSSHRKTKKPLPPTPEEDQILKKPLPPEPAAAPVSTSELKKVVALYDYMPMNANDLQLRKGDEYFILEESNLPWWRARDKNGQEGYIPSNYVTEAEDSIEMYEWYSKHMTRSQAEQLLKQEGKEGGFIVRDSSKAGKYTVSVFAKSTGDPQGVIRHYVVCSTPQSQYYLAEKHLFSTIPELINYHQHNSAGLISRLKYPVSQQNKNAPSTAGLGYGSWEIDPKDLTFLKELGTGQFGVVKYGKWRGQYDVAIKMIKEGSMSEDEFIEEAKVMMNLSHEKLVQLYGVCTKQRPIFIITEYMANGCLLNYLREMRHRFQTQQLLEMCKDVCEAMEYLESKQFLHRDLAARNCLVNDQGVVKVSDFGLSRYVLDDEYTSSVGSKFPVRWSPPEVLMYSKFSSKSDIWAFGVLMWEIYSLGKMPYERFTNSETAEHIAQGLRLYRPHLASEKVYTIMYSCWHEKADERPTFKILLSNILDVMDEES

Q: How did the IC50 (BTK [1]) turn out when `CC#CC(=O)N1CCC[C@H]1c1nc(-c2ccc(Oc3ccccc3)nc2)c2cnccn12` [Example 15, (S)-1-(2-(1-(6-phenoxypyridin-3-yl)imidazo[1,5-a]pyrazin-3-yl)pyrrolidin-1-yl)but-2-yn-1-one] was run?
A: The IC50 was over 10000 nM.

Q: Which IC50 (BTK [1]) does the source give for `CC#CC(=O)N1CC[C@@H](c2nc(-c3ccc(Oc4cccc(OC)c4F)cc3)c3c(C(N)=O)nccn23)C1` [Example 108, (R)-3-(1-(but-2-ynoyl)pyrrolidin-3-yl)-1-(4-(2-fluoro-3-methoxyphenoxy)phenyl)imidazo[1,5-a]pyrazine-8-carboxamide] here?
A: The IC50 was over 10000 nM.

Q: `CC#CC(=O)N1CC[C@@H](c2nc(-c3ccc(Oc4cccc(OC)c4F)cc3)c3cncc(OCCCC)n23)C1` [Example 97, (R)-1-(3-(5-butoxy-1-(4-(2-fluoro-3-methoxyphenoxy)phenyl)imidazo[1,5-a]pyrazin-3-yl)pyrrolidin-1-yl)but-2-yn-1-one] was tested. Which IC50 (BTK [1]) did it give?
A: The IC50 was under 10 nM.

Q: How did the IC50 (BTK [1]) turn out when `C=CC(=O)N1CC[C@@H](c2nc(-c3ccc(Oc4cccc(OC)c4F)cc3)c3cncc(OCC)n23)C1` [Example 94, (R)-1-(3-(5-ethoxy-1-(4-(2-fluoro-3-methoxyphenoxy)phenyl)imidazo[1,5-a]pyrazin-3-yl)pyrrolidin-1-yl)prop-2-en-1-one] was run?
A: The IC50 was under 10 nM.

Q: With `C=CC(=O)N1CCC[C@H]1c1nc(-c2ccc(Oc3cccc(OC)c3F)cc2)c2cncc(OC)n12` [Example 82, (S)-1-(2-(1-(4-(2-fluoro-3-methoxyphenoxy)phenyl)-5-methoxyimidazo[1,5-a]pyrazin-3-yl)pyrrolidin-1-yl)prop-2-en-1-one] as the compound, how does the IC50 (BTK [1]) read?
A: Its IC50 is under 10 nM.

Q: For `CC#CC(=O)N1CCCC[C@H]1c1nc(-c2ccc(C(=O)Nc3ccccn3)cc2)c2c(C(F)(F)F)nccn12` [Example 200, (S)-4-(3-(1-(but-2-ynoyl)piperidin-2-yl)-8-(trifluoromethyl)imidazo [1,5-a]pyrazin-1-yl)-N-(pyridin-2-yl)benzamide], which IC50 (BTK [1]) is on record?
A: The IC50 was over 10000 nM.

Q: How did the IC50 (BTK [1]) turn out when `CC#CC(=O)N1CC[C@@H](c2nc(-c3ccc(Oc4cccc(OC)c4F)cc3)c3c(C)nccn23)C1` [Example 92, (R)-1-(3-(1-(4-(2-fluoro-3-methoxyphenoxy)phenyl)-8-methylimidazo[1,5-a]pyrazin-3-yl)pyrrolidin-1-yl)but-2-yn-1-one] was run?
A: Its IC50 is under 10 nM.

Q: With `CC#CC(=O)N1CC[C@@H](c2nc(-c3ccc(Oc4cccc(OC)c4F)cc3)c3cncc(OCC)n23)C1` [Example 93, (R)-1-(3-(5-ethoxy-1-(4-(2-fluoro-3-methoxyphenoxy)phenyl)imidazo[1,5-a]pyrazin-3-yl)pyrrolidin-1-yl)but-2-yn-1-one] as the compound, how does the IC50 (BTK [1]) read?
A: The IC50 was under 10 nM.

Q: `CC#CC(=O)N1CC[C@@H](c2nc(-c3ccc(Oc4cccc(OC)c4F)cc3)c3cncc(OCCC)n23)C1` [Example 96, (R)-1-(3-(1-(4-(2-fluoro-3-methoxyphenoxy)phenyl)-5-propoxyimidazo[1,5-a]pyrazin-3-yl)pyrrolidin-1-yl)but-2-yn-1-one] was tested. Which IC50 (BTK [1]) did it give?
A: Its IC50 is under 10 nM.

Q: `CC#CC(=O)N1CC[C@@H](c2nc(-c3ccc(Oc4cccc(OC)c4F)cc3)c3c(OC)nccn23)C1` [Example 116, (R)-1-(3-(1-(4-(2-fluoro-3-methoxyphenoxy)phenyl)-8-methoxyimidazo[1,5-a]pyrazin-3-yl)pyrrolidin-1-yl)but-2-yn-1-one] was tested. Which IC50 (BTK [1]) did it give?
A: The IC50 was over 10000 nM.

Q: How did the IC50 (BTK [1]) turn out when `CC#CC(=O)N1CC[C@@H](c2nc(-c3ccc(Oc4cccc(OC)c4F)cc3)c3cnccn23)C1` [Example 69, (R)-1-(3-(1-(4-(2-fluoro-3-methoxyphenoxy)phenyl)imidazo[1,5-a]pyrazin-3-yl)pyrrolidin-1-yl)but-2-yn-1-one] was run?
A: Its IC50 is under 10 nM.

Q: How did the IC50 (BTK [1]) turn out when `CC#CC(=O)N1CCCC[C@H]1c1nc(-c2ccc(C(=O)Nc3cc(C(F)(F)F)ccn3)cc2)c2c(C(F)(F)F)nccn12` [Example 202, (S)-4-(3-(1-(but-2-ynoyl)piperidin-2-yl)-8-(trifluoromethyl)imidazo [1,5-a]pyrazin-1-yl)-N-(4-(trifluoromethyl)pyridin-2-yl)benzamide] was run?
A: Its IC50 is over 10000 nM.

Q: Which IC50 (BTK [1]) does the source give for `C=CC(=O)N1CC[C@@H](c2nc(-c3ccc(Oc4cccc(OC)c4F)cc3)c3c(C)ncc(C)n23)C1` [Example 74, (R)-1-(3-(1-(4-(2-fluoro-3-methoxyphenoxy)phenyl)-5,8-dimethylimidazo[1,5-a]pyrazin-3-yl)pyrrolidin-1-yl)prop-2-en-1-one] here?
A: Its IC50 is under 10 nM.

Q: For `C=CC(=O)N1CCCC[C@H]1c1nc(-c2ccc(Oc3cccc(F)c3)cc2)c2c(C)nccn12` [Example 55, (S)-1-(2-(1-(4-(3-fluorophenoxy)phenyl)-8-methylimidazo[1,5-a]pyrazin-3-yl)piperidin-1-yl)prop-2-en-1-one], which IC50 (BTK [1]) is on record?
A: The IC50 was under 10 nM.

Q: `C=CC(=O)N1CC[C@@H](c2nc(-c3ccc(Oc4cccc(OC)c4F)cc3)c3cncc(OC)n23)C1` [Example 85, (R)-1-(3-(1-(4-(2-fluoro-3-methoxyphenoxy)phenyl)-5-methoxyimidazo[1,5-a]pyrazin-3-yl)pyrrolidin-1-yl)prop-2-en-1-one] was tested. Which IC50 (BTK [1]) did it give?
A: Its IC50 is under 10 nM.

Q: How did the IC50 (BTK [1]) turn out when `CC#CC(=O)N1CCCC[C@H]1c1nc(-c2ccc(C(=O)Nc3ccccn3)cc2)c2c(C3CC3)nccn12` [Example 192, (S)-4-(3-(1-(but-2-ynoyl)piperidin-2-yl)-8-cyclopropylimidazo[1,5-a]pyrazin-1-yl)-N-(pyridin-2-yl)benzamide] was run?
A: The IC50 was over 10000 nM.

Q: For `CC#CC(=O)N1CC[C@@H](c2nc(-c3ccc(Oc4cccc(OC)c4F)cc3)c3cncc(OC)n23)C1` [Example 86, (R)-1-(3-(1-(4-(2-fluoro-3-methoxyphenoxy)phenyl)-5-methoxyimidazo[1,5-a]pyrazin-3-yl)pyrrolidin-1-yl)but-2-yn-1-one], which IC50 (BTK [1]) is on record?
A: The IC50 was under 10 nM.

Q: With `CCCCOc1cncc2c(-c3ccc(Oc4cccc(OC)c4F)cc3)nc([C@@H]3CCN(Cc4ccccc4)C3)n12` [Example 102, (R)-3-(1-benzylpyrrolidin-3-yl)-5-butoxy-1-(4-(2-fluoro-3-methoxyphenoxy)phenyl)imidazo[1,5-a]pyrazine] as the compound, how does the IC50 (BTK [1]) read?
A: The IC50 was over 10000 nM.

Q: `C=CC(=O)N1CCCC[C@H]1c1nc(-c2ccc(C(=O)Nc3ccccn3)cc2)c2c(C)nccn12` [Example 170, (S)-4-(3-(1-acryloylpiperidin-2-yl)-8-methylimidazo [1,5-a]pyrazin-1-yl)-N-(pyridin-2-yl)benzamide] was tested. Which IC50 (BTK [1]) did it give?
A: Its IC50 is under 10 nM.

Q: `C=CC(=O)N1CCC[C@H]1c1nc(-c2ccc(Oc3cccc(Cl)c3)cc2)c2cnccn12` [Example 28, (S)-1-(2-(1-(4-(3-chlorophenoxy)phenyl)imidazo[1,5-a]pyrazin-3-yl)pyrrolidin-1-yl)prop-2-en-1-one] was tested. Which IC50 (BTK [1]) did it give?
A: The IC50 was under 10 nM.

Q: `C=CC(=O)N1CC[C@@H](c2nc(-c3ccc(Oc4cccc(OC)c4F)cc3)c3c(CC)nccn23)C1` [Example 106, (R)-1-(3-(8-ethyl-1-(4-(2-fluoro-3-methoxyphenoxy)phenyl)imidazo[1,5-a]pyrazin-3-yl)pyrrolidin-1-yl)prop-2-en-1-one] was tested. Which IC50 (BTK [1]) did it give?
A: The IC50 was under 10 nM.

Q: `CC#CC(=O)N1CCC[C@H]1c1nc(-c2ccc(Oc3cccc(OC)c3F)cc2)c2c(C(N)=O)nccn12` [Example 38, (S)-3-(1-(but-2-ynoyl)pyrrolidin-2-yl)-1-(4-(2-fluoro-3-methoxyphenoxy)phenyl)imidazo[1,5-a]pyrazine-8-carboxamide] was tested. Which IC50 (BTK [1]) did it give?
A: The IC50 was over 10000 nM.

Q: `C=CC(=O)N1CCCC[C@H]1c1nc(-c2ccc(Oc3cccc(OC)c3)cc2)c2c(C)nccn12` [Example 48, (S)-1-(2-(1-(4-(3-methoxyphenoxy)phenyl)-8-methylimidazo[1,5-a]pyrazin-3-yl)piperidin-1-yl)prop-2-en-1-one] was tested. Which IC50 (BTK [1]) did it give?
A: Its IC50 is under 10 nM.

Q: Which IC50 (BTK [1]) does the source give for `CC#CC(=O)N1CCCC[C@H]1c1nc(-c2ccc(Oc3cccc(OC)c3F)cc2)c2c(C(F)(F)F)nccn12` [Example 122, (S)-1-(2-(1-(4-(2-fluoro-3-methoxyphenoxy)phenyl)-8-(trifluoromethyl)imidazo[1,5-a]pyrazin-3-yl)piperidin-1-yl)but-2-yn-1-one] here?
A: The IC50 was over 10000 nM.

Q: How did the IC50 (BTK [1]) turn out when `C=CC(=O)N1CCC[C@H]1c1nc(-c2ccc(C(=O)Nc3ccccn3)cc2)c2c(C3CC3)nccn12` [Example 190, (S)-4-(3-(1-acryloylpyrrolidin-2-yl)-8-cyclopropylimidazo [1,5-a]pyrazin-l-yl)-N-(pyridin-2-yl)benzamide] was run?
A: The IC50 was over 10000 nM.

Q: `COc1cccc(Oc2ccc(-c3nc([C@@H]4CCN(C(=O)/C=C/CN(C)C5CC5)C4)n4ccnc(C)c34)cc2)c1F` [Example 105, (R,E)-4-(cyclopropyl(methyl)amino)-1-(3-(1-(4-(2-fluoro-3-methoxyphenoxy)phenyl)-8-methylimidazo[1,5-a]pyrazin-3-yl)pyrrolidin-1-yl)but-2-en-1-one] was tested. Which IC50 (BTK [1]) did it give?
A: The IC50 was under 10 nM.

Q: `C=CC(=O)N1CC[C@@H](c2nc(-c3ccc(Oc4cccc(OC)c4F)cc3)c3cncc(OCCC)n23)C1` [Example 95, (R)-1-(3-(1-(4-(2-fluoro-3-methoxyphenoxy)phenyl)-5-propoxyimidazo[1,5-a]pyrazin-3-yl)pyrrolidin-1-yl)prop-2-en-1-one] was tested. Which IC50 (BTK [1]) did it give?
A: The IC50 was under 10 nM.

Q: Which IC50 (BTK [1]) does the source give for `C=CC(=O)N1CC[C@@H](c2nc(-c3ccc(Oc4cccc(OC)c4F)cc3)c3cnccn23)C1` [Example 68, (R)-1-(3-(1-(4-(2-fluoro-3-methoxyphenoxy)phenyl)imidazo[1,5-a]pyrazin-3-yl)pyrrolidin-1-yl)prop-2-en-1-one] here?
A: Its IC50 is under 10 nM.

Q: `CC#CC(=O)N1CC[C@@H](c2nc(-c3ccc(Oc4cccc(OC)c4F)cc3)c3c(CF)nccn23)C1` [Example 120, (R)-1-(3-(1-(4-(2-fluoro-3-methoxyphenoxy)phenyl)-8-(fluoromethyl)imidazo[1,5-a]pyrazin-3-yl)pyrrolidin-1-yl)but-2-yn-1-one] was tested. Which IC50 (BTK [2]) did it give?
A: Its IC50 is 10 to 100 nM.

Q: Which IC50 (BTK [2]) does the source give for `CC#CC(=O)N1CCC[C@H]1c1nc(-c2ccc(Oc3cccc(OC)c3F)cc2)c2cnccn12` [Example 34, (S)-1-(2-(1-(4-(2-fluoro-3-methoxyphenoxy)phenyl)imidazo[1,5-a]pyrazin-3-yl)pyrrolidin-1-yl)but-2-yn-1-one] here?
A: Its IC50 is 10 to 100 nM.

Q: Which IC50 (BTK [2]) does the source give for `CC#CC(=O)N1CCCC[C@H]1c1nc(-c2ccc(OCc3cccc(F)c3F)cc2)c2c(C)nccn12` [Example 155, (S)-1-(2-(1-(4-((2,3-difluorobenzyl)oxy)phenyl)-8-methylimidazo[1,5-a]pyrazin-3-yl)piperidin-1-yl)but-2-yn-1-one] here?
A: The IC50 was 100 to 1000 nM.

Q: `CC#CC(=O)N1CCCC[C@H]1c1nc(-c2ccc(C(=O)Nc3ccccn3)cc2)c2cncc(C)n12` [Example 187, (S)-4-(3-(1-(but-2-ynoyl)piperidin-2-yl)-5-methylimidazo[1,5-a]pyrazin-1-yl)-N-(pyridin-2-yl)benzamide] was tested. Which IC50 (BTK [2]) did it give?
A: Its IC50 is 1000 to 10000 nM.
